The test relates to C57Bl/6 mice transplanted after myeloablation by total body irradiation (TBI). Put plainly: Survival of mice after syngeneic bone marrow transplant following myeloablation by total body irradiation, with suspected norovirus infection. To be noted: 500 μg/kg/day subcutaneous, FIG. 1. The format is in vivo. How it is done:
FIG. 1. C57Bl/6 mice (n=40/group) were transplanted after myeloablation by total body irradiation (TBI) from Saline or A(1-7) treated donors and received saline or A(1-7) after transplant.
[…] mice underwent […] in split doses separated by 3 hours. Two hours after TBI, the mice received 2×10^6 syngeneic bone marrow cells by intravenous injection. For treatment, either donors (14 days prior to donation), recipients (starting on the day of transplant) or both received 500 μg/kg/day A(1-7) by subcutaneous injection During bone marrow transplant (BMT), recipients are immune suppressed due to myeloablation. Mice are normally kept in pathogen-free environments during BMT to reduce mortality due to infection.

For “Asp-Arg-Val-Tyr-Ile-His-Pro (DRVYIHP) [A(1-7)]”, the survival result (both donor and recipient treated) was “all surviving”; the survival entry (treatment of either donor (14 days prior to donation), recipient (starting on day of transplant) or both) is on record as “improved survival”.

The record behind these values is patent US20120071397A1, “Methods for Hematopoietic Stem Cell Transplantation” (University of Southern California, priority 2010, published 2012).
